Experiment [1] addresses T1, 15 soybean lipoxygenase (15-sLOX) (Glycine max, UniProt P08170).
T1 construct: purchased Cayman Chemical 60712
T1 sequence (P08170 1-839): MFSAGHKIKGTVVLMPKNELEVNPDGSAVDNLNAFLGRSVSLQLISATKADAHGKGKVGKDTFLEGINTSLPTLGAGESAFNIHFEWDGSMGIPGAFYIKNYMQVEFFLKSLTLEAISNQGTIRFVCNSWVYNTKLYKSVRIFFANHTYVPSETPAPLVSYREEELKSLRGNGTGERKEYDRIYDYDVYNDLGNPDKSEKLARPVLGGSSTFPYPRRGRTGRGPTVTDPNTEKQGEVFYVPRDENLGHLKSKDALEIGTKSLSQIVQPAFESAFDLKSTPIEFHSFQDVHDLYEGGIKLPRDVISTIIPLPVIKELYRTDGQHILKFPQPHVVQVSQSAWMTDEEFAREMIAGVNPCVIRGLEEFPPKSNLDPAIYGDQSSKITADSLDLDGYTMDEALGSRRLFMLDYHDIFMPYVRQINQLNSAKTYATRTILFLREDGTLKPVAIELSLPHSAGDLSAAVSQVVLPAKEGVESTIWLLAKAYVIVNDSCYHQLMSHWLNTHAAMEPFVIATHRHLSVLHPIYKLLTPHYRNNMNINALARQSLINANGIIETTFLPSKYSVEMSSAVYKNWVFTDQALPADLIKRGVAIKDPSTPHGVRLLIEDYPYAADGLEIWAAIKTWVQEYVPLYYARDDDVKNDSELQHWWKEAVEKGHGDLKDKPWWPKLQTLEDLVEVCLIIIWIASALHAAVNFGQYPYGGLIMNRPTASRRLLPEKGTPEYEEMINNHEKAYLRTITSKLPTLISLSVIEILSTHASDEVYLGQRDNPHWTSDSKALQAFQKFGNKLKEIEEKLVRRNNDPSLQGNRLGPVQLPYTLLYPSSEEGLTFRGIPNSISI
As to the kind of experiment: In vitro assay of 15 soybean lipoxygenase inhibition. It is filed as biochemical. Here is the method:
Assays of inhibition of 15-sLOX were performed using a previous published methodology ([Tirapegui et al., 2017]), with minor modifications. In shortly, the activity of 15-sLOX (Cayman Chemical Item No. 60712) was determined following the formation of reaction products at 234 nm (ε = 25,000 M^−1cm^−1) with a Perkin-Elmer Lambda 25 UV/Vis (LabMakelaar Benelux B.V. Zuid-Holland, Nederland). All reactions were performed at a final volume of 2 ml and stirred using a magnetic bar at room temperature. The reaction medium used contained 0.1 M HEPES buffer (pH 7.4), Triton X-100 0.01%, and the linoleic acid substrate at a 10 μM concentration determine preliminary percent inhibition (% I). The concentration was determined quantitatively by allowing the enzymatic reaction to go to completion. The reaction was carried out by adding the inhibitor (sample) in methanol to the cuvette with the substrate buffer, and finally the enzyme was added. Nordihydroguaiaretic acid was used as positive control. Assays were performed in duplicate on two different days. IC50 values were determined by measuring enzyme activity at different concentrations of inhibitor dissolved in methanol; in the range of the initial velocity of the enzyme reaction. Finally, the inhibition% vs. the inhibitor concentration was plotted, giving a hyperbolic saturation curve using GraphPad Prism Demo.

Experiment [2] deals with T2, 5 human lipoxygenase (5-hLOX) (Homo sapiens, UniProt P09917).
T2 construct: purchased Cayman Chemical 60402
T2 sequence (P09917 1-674): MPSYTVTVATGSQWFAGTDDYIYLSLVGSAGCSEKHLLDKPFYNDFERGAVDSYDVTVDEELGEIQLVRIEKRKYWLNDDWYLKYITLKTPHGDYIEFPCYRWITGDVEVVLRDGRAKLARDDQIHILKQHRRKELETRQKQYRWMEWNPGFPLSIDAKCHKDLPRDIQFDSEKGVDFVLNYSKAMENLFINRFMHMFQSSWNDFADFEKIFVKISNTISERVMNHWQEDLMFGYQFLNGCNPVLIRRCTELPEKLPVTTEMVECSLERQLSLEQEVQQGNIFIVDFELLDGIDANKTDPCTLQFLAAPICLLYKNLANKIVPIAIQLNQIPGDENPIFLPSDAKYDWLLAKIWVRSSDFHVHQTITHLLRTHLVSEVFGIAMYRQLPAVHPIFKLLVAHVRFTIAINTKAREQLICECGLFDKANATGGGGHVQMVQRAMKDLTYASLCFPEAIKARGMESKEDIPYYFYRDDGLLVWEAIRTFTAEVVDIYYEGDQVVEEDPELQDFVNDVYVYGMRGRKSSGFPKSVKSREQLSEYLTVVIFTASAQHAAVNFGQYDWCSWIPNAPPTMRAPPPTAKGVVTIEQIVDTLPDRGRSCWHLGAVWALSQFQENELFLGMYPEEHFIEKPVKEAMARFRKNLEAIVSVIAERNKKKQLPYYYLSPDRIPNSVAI
Put plainly: In vitro assay of 5 human lipoxygenase inhibition. In kind it is biochemical. Here is the method: Assays of inhibition of 5-hLOX were performed using a previous published methodology ([Vásquez-Martínez et al., 2019]), with minor modifications. In shortly, the enzyme (Cayman Chemical Item No. 60402) was diluted (1:500) in the assay buffer (HEPES 50 mM, EDTA 2 mM, ATP 10 μM and CaCl2 10 μM at pH 7.5) and mixed with 10 μM of 2′,7′-dichlorofluorescin diacetate (H2DCFDA) dye. The reaction mixture was incubated for 15 min in the assay plate. Subsequently, 33.3 μl of assay buffer was added per well, and 3.3 μl of inhibitor was added to a final concentration of 10 μM; this reaction mixture was incubated for 30 min. The reaction was started by addition of AA (3.3 μM) and was incubated for 1 h and fluorescence was read in a multimode detector Synergy™ HT Multi-Mode Microplate Reader (Biotek, Winooski, VT, United States) at 480 nm excitation/ 520 nm emission after a reaction that had proceeded for 1 h at room temperature. The IC50 values were obtained using the nonlinear curve- fitting program of Graph Pad Prism Demo.

Another experiment relates to 5-hLOX. The arrangement: method as in Sadik et al., 2003. The conditions noted are these: known flavonoid inhibitors of 5-hLOX; ref Sadik et al., 2003; cited from earlier work.
[3] abbreviates: class symbol NA, read-out: IC50 5-hLOX Inhibition.

Read-outs that look alike come from different tables or passages of the source.

On to `CCCC/C=C\CCCCCCCCCc1cccc(O)c1O` [Compound 2, 3-[(10Z)-pentadec-10′-en-1-yl]-catechol], for which the results for the IC50 in experiment [1] and in experiment [2] were 54.8 µM and 2.09 µM, respectively.

For `CCCCC=CCCCCCCCCCc1cccc(OC(C)=O)c1OC(C)=O` [Compound 4], the IC50 in experiment [1] and in experiment [2] (setting [3]) was > 124 µM each time.

As for `O=C(O[C@@H]1Cc2c(O)cc(O)cc2O[C@@H]1c1cc(O)c(O)c(O)c1)c1cc(O)c(O)c(O)c1` [(−)-epigallocatechin gallate], the IC50 in the experiment with 5-hLOX is 3.1 µM.

As to `CCCCCCCCCCCCCCCc1cccc(O)c1O` [Compound 3, 3-n-pentadecylcatechol], the 50% inhibitory concentration (IC50) in experiment [1] came to 55.3 µM; in experiment [2], 2.74 µM.

With `O=c1c(O)c(-c2ccc(O)c(O)c2)oc2cc(O)cc(O)c12` [quercetin], the concentration for half-maximal inhibition (IC50) in the experiment with 5-hLOX was 0.6 µM.

As for `CCCCCCCCCCCCCCCc1cccc(OC(C)=O)c1OC(C)=O` [Compound 5], the 50% inhibitory concentration (IC50) in experiment [1] and in experiment [2] (setting [3]) was > 124 µM in each case.

Turning to `Oc1cc(O)c2c(c1)O[C@H](c1ccc(O)c(O)c1)[C@H](O)C2` [(−)-epicatechin], the IC50 in the experiment on 5-hLOX was 22 µM.

The IC50 is the concentration at which inhibition is half-maximal.

(Values after publication PMC7774326, “Inhibition of Soybean 15-Lipoxygenase and Human 5-Lipoxygenase by Extracts of Leaves, Stem Bark, Phenols and Catechols Isolated From Lithraea caustica (Anacardiaceae)” (Frontiers in Pharmacology, 2020).)
